Test results taken from ChEMBL document CHEMBL1909046, “DrugMatrix in vitro pharmacology data”.
Where a SMILES comes first, the peptide text is derived from it. Bridges are numbered along the chain shown (N, C = ends). [ ]: non-standard residue; d: D form. The star is where a group is joined. Ileψ(thiazoline)Cys = CC[C@H](C)[C@H](N)C1=N[C@H](C(=O)*)CS1; dOrn = NCCC[C@@H](N)C(=O)O

Tests used:
Interstitial collagenase = molecular target: T1, Interstitial collagenase (Homo sapiens, UniProt P03956); type: tissue-based, Rheumatoid synovial fibroblasts;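 note: MMP-1 enzyme inhibition assay using a peptide substrate; in other assays of this panel Not Active means under 50% inhibition at 10 µM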
T1 sequence (P03956 whole entry): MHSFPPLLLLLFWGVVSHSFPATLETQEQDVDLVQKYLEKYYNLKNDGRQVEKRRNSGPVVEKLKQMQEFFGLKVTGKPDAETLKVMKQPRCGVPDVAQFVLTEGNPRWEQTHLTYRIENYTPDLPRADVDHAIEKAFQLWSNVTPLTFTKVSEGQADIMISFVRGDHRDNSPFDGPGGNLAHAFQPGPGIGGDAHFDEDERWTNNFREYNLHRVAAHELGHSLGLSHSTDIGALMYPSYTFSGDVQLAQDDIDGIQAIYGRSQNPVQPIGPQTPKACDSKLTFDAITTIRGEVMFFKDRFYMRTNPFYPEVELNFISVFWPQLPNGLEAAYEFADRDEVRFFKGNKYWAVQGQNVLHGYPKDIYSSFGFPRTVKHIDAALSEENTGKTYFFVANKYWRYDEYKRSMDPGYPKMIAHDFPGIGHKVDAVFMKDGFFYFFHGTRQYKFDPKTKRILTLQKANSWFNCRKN

Mu-type opioid receptor = Mu-type opioid receptor (Homo sapiens, UniProt P35372); assay: DRUGMATRIX: Opiate mu (OP3, MOP) radioligand binding (ligand: [3H] Diprenorphine); type: cell membranes, CHO-K1, Membrane; conditions: Not Active = under 50% inhibition at 10 µM
[1] = molecular target: T2, Alpha-1B adrenergic receptor (Rattus norvegicus, UniProt P15823); assay: DRUGMATRIX: Alpha-1B adrenergic receptor radioligand binding (ligand: prazosin); type: cell membranes, Wistar, Liver, Membrane; conditions: Not Active = under 50% inhibition at 10 µM
T2 sequence (P15823 whole entry): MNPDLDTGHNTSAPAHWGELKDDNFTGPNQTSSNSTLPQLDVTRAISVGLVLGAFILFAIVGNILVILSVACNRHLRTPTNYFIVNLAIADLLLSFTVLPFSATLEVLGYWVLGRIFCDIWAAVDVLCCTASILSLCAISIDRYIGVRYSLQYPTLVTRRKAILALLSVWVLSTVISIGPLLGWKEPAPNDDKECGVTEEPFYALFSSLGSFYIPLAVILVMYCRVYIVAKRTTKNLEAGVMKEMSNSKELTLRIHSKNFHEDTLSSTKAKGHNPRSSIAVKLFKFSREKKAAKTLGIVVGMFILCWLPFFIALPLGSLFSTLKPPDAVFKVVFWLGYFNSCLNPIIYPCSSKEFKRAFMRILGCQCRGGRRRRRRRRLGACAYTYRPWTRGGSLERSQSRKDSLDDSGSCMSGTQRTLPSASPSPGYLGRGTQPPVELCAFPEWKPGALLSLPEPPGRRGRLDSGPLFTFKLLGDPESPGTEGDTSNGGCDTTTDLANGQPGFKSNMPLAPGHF

[2] = molecular target: T3, Nitric oxide synthase, inducible (Mus musculus, UniProt P29477); set-up: species or system Escherichia coli;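 note: inhibition of iNOS enzyme activity measured with L-arginine as substrate; in other assays of this panel Not Active means under 50% inhibition at 10 µM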
T3 sequence (P29477 whole entry): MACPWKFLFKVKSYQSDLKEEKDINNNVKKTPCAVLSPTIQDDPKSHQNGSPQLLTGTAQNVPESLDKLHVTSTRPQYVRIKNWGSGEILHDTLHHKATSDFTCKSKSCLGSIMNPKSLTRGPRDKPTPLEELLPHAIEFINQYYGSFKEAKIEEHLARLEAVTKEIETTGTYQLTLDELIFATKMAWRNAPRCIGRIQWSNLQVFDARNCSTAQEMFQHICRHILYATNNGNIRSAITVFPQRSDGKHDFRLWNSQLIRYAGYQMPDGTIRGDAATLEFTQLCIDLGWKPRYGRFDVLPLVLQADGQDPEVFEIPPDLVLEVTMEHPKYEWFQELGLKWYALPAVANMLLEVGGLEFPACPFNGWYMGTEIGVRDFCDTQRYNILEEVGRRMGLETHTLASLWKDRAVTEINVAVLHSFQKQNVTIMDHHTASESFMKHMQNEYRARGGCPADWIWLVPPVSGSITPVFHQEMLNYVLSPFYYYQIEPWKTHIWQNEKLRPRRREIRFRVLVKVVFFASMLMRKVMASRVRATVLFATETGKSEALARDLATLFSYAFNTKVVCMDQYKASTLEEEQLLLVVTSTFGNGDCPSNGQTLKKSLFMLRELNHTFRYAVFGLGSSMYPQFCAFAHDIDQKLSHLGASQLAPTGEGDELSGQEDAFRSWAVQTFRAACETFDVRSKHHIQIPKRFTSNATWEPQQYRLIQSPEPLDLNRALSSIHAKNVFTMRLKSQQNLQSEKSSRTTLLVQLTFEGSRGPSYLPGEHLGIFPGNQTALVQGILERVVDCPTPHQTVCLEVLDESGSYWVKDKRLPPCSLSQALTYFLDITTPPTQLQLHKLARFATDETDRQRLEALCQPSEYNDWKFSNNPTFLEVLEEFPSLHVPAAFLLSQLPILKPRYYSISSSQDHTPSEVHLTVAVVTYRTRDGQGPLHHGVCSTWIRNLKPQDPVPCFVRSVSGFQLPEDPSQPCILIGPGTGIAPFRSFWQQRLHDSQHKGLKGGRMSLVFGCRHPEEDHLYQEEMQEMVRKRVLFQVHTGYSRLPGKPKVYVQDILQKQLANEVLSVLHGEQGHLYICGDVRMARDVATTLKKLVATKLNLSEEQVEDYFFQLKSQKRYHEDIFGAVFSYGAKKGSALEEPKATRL

[3] = molecular target: T4, Polyunsaturated fatty acid lipoxygenase ALOX15 (Oryctolagus cuniculus, UniProt P12530); assay: biochemical; type: tissue-based, Reticulocytes; conditions: reticulocytes;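 note: inhibition of 15-lipoxygenase enzyme activity measured with linoleic acid as the substrate; in other assays of this panel Not Active means under 50% inhibition at 10 µM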
T4 sequence (P12530 whole entry): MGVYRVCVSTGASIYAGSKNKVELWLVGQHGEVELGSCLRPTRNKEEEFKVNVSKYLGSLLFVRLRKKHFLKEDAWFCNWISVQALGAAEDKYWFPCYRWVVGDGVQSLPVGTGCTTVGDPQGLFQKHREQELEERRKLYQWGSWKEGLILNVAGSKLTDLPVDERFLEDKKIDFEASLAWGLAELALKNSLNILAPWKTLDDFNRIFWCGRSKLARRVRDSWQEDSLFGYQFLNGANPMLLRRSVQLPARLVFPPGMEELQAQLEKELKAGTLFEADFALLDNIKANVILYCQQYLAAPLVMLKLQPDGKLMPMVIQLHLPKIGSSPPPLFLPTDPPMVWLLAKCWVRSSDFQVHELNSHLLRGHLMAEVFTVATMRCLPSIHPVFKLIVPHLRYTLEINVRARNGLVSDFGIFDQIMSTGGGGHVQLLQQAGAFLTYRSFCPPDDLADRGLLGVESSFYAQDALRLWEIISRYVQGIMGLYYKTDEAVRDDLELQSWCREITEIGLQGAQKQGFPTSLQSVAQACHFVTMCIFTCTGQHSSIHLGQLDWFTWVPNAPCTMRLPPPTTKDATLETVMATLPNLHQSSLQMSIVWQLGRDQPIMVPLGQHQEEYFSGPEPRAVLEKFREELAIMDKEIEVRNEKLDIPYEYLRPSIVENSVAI

Sequence of Mu-type opioid receptor (P35372 whole entry): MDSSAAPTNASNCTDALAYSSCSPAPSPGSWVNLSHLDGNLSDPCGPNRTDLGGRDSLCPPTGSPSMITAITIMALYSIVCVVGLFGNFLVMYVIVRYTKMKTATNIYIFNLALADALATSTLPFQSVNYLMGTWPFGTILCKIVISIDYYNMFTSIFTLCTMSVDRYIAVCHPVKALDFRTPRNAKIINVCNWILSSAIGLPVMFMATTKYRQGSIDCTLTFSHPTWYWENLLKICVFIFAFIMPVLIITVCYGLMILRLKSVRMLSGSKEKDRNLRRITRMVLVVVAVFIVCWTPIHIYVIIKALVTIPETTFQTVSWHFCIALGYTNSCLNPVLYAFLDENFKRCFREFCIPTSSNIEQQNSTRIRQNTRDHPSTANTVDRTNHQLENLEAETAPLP

| Structure (SMILES) | IC50 (Interstitial collagenase) | IC50 (Mu-type opioid receptor; cho-k1) | IC50 [1] | IC50 [2] | IC50 [3] | Ki (Mu-type opioid receptor) [nM] | IC50 (Mu-type opioid receptor; read-out: IC50) [nM] | IC50 ([1]; read-out: IC50) [nM] | Ki ([1]; read-out: Ki) [nM] |
| --- | --- | --- | --- | --- | --- | --- | --- | --- | --- |
| NCC[C@H](O)C(=O)N[C@@H]1C[C@H](N)[C@@H](O[C@H]2O[C@H](CN)[C@@H](O)[C@H](O)[C@H]2O)[C@H](O)[C@H]1O[C@H]1O[C@H](CO)[C@@H](O)[C@H](N)[C@H]1O [AMIKACIN] | Not Active | Not Active | Not Active | Not Active | Not Active | – | – | – | – |
| CC1(C)S[C@@H]2[C@H](NC(=O)[C@H](N)c3ccc(O)cc3)C(=O)N2[C@H]1C(=O)O [AMOXICILLIN] | Not Active | Not Active | Not Active | Not Active | Not Active | – | – | – | – |
| CCOC(=O)OC(C)OC1=C(C(=O)Nc2ccccn2)N(C)S(=O)(=O)c2ccccc21 (configuration not stated) [AMPIROXICAM] | Not Active | Not Active | Not Active | Not Active | Not Active | – | – | – | – |
| N=C(N)NCCCCNC(=N)N.O=S(=O)(O)O [ARCAINE SULFATE] | Not Active | Not Active | Not Active | Not Active | Not Active | – | – | – | – |
| Cn1cnc([N+](=O)[O-])c1Sc1ncnc2nc[nH]c12 [AZATHIOPRINE] | Not Active | Not Active | Not Active | Not Active | Not Active | – | – | – | – |
| CC1(C)S[C@@H]2[C@H](NC(=O)[C@H](NC(=O)N3CCNC3=O)c3ccccc3)C(=O)N2[C@H]1C(=O)O [AZLOCILLIN] | Not Active | Not Active | Not Active | Not Active | Not Active | – | – | – | – |
| CC[C@H](C)[C@H](N)C1=N[C@H](C(=O)N[C@@H](CC(C)C)C(=O)N[C@H](CCC(=O)O)C(=O)N[C@H](C(=O)N[C@H]2CCCCNC(=O)[C@H](CC(N)=O)NC(=O)[C@@H](CC(=O)O)NC(=O)[C@H](Cc3cnc[nH]3)NC(=O)[C@@H](Cc3ccccc3)NC(=O)[C@H]([C@@H](C)CC)NC(=O)[C@@H](CCCN)NC2=O)[C@@H](C)CC)CS1 [BACITRACIN] ({Ileψ(thiazoline)Cys}-L[dE]IK[dOrn]I[dF]H[dD]N; lactam 4-C) | Not Active | Not Active | Not Active | Not Active | Not Active | – | – | – | – |
| CCOC(=O)c1ccc(N)cc1 [BENZOCAINE] | Not Active | Not Active | Not Active | Not Active | Not Active | – | – | – | – |
| OCc1ccccc1 [BENZYL ALCOHOL] | Not Active | Not Active | Not Active | Not Active | Not Active | – | – | – | – |
| CC(C)(Oc1ccc(CCNC(=O)c2ccc(Cl)cc2)cc1)C(=O)O [BEZAFIBRATE] | Not Active | Not Active | Not Active | Not Active | Not Active | – | – | – | – |
| Oc1c(Cl)cc(Cl)cc1Sc1cc(Cl)cc(Cl)c1O [BITHIONOL] | Not Active | – | Not Active | Not Active | Not Active | 2240 | 5510 | – | – |
| Brc1ccccc1 [BROMOBENZENE] | Not Active | Not Active | Not Active | Not Active | Not Active | – | – | – | – |
| CCCCOC(=O)c1ccc(N)cc1 [BUTAMBEN] | Not Active | Not Active | Not Active | Not Active | Not Active | – | – | – | – |
| CC[C@@]1(O)C(=O)OCc2c1cc1n(c2=O)Cc2cc3ccccc3nc2-1 [CAMPTOTHECIN] | Not Active | Not Active | Not Active | Not Active | Not Active | – | – | – | – |
| COCc1c(C(C)C)nc(C(C)C)c(/C=C/[C@@H](O)C[C@@H](O)CC(=O)O)c1-c1ccc(F)cc1 [CERIVASTATIN] | Not Active | Not Active | Not Active | Not Active | Not Active | – | – | – | – |
| CC(=O)O[C@]1(C(C)=O)CC[C@H]2[C@@H]3C=C(Cl)C4=CC(=O)CC[C@]4(C)[C@H]3CC[C@@]21C [CHLORMADINONE ACETATE] | Not Active | Not Active | Not Active | Not Active | Not Active | – | – | – | – |
| O=C1CCc2cc(OCCCCc3nnnn3C3CCCCC3)ccc2N1 [CILOSTAZOL] | Not Active | Not Active | Not Active | Not Active | Not Active | – | – | – | – |
| O=C(O)c1cn(C2CC2)c2cc(N3CCNCC3)c(F)cc2c1=O [CIPROFLOXACIN] | Not Active | Not Active | Not Active | Not Active | Not Active | – | – | – | – |
| CN(C)CCCC1(c2ccc(F)cc2)OCc2cc(C#N)ccc21 (configuration not stated) [CITALOPRAM] | Not Active | Not Active | – | Not Active | Not Active | – | – | 3290 | 1820 |
